Measurements reported in patent US20230128194A1, “METHODS AND COMPOSITIONS TO ALTER HEPATIC GABA RELEASE TO TREAT OBESITY-RELATED CONDITIONS” (ARIZONA BOARD OF REGENTS ON BEHALF OF THE UNIVERSITY OF …, priority 2017, published 2023).

Experiments:
[1] = test system: high fat diet-induced obese mice; assay: tissue specific 3H-2-deoxy-D-glucose uptake after oral glucose gavage; format: in vivo, mouse; details: day 5, vs saline
Protocol: On the fifth day of EOS or PBS treatment 3H-2-deoxy-D-glucose (2DG; 10 uCi/mouse; PerkinElmer, Waltham, Mass.) was given to 4-hour fasted individually housed mice. Studies were performed in 2 cohorts on 2 different days. 2DG was given by oral gavage in a solution of glucose (2.5 g/kg) and each mouse received the same dose based off the average body weight for their cohort (0.1 mL/10 g body weight). Mice were anesthetized by isoflurane and sacrificed by cervical dislocation 45 minutes following oral gavage. Liver, soleus, quadriceps femoris, and gonadal white adipose tissue were collected, weighed, and dissolved overnight in 1N NaOH (0.5 mL/50 mg tissue) at 55° C. on a shaker plate. 0.5 mL of dissolved tissue was added to 5 mL of scintillation cocktail (Ultima Gold, PerkinElmer, Waltham, Mass.) and disintegrations per minute (DPM) were measured using a LS 6500 Multipurpose Scintillation Counter (Beckman Coulter, Brea, Calif.). DPM/g tissue weight was determined for each tissue and normalized based on a correction factor calculated by the average total DPM/g for all tissues divided by the total DPM/g for all tissues of the individual mouse.

[2] = test system: obese hepatic vagotomized and sham operated mice; assay: EOS (8 mg/day) in HFD-induced obese sham operated and hepatic vagotomized mice; format: in vivo, mouse
Protocol: Surgeries were performed in 12-week old male C57BL/6J mice under isoflurane anesthesia. Mice were randomly assigned to a surgical group (sham or vagotomy). A ventral midline incision through the skin and peritoneum allowed us to isolate the hepatic vagus nerve as it branched from the esophagus. In vagotomized mice, the hepatic vagal nerve was severed, while it remained intact in sham operated mice. The peritoneum was sutured with absorbable polyglactin 910 suture and the skin with nylon suture. Mice were given a single post-operative dose of slow release formulated buprenorphine analgesic (1.2 mg/kg slow release, sub-cutaneous). Food intake and body weight were monitored daily and sutures were removed 7 days post-operation.
Wildtype lean and obese mice were randomly divided into treatment groups and dosed daily with 8 mg of ethanolamine-O-sulfate (EOS; Sigma-Aldrich, St. Louis, Mo.), vigabatrin (United States Pharmacopeia, Rockville, Md.) or PBS. Obese sham and vagotomy mice were dosed daily with 8 mg of EOS. In all cases, basal bleeds were taken prior to initiation of an ITT. Lean mice received treatment by oral gavage (0.3 mL/mouse) while obese mice were treated by intraperitoneal injection (0.3 mL/mouse). Pre-treatment studies were conducted in the week immediately prior to beginning drug administration. Daily doses took place at 9 am each day and oral glucose tolerance tests (OGTT) and insulin tolerance tests (ITT) were performed on the third and fourth days of treatment in lean mice, respectively. In wildtype obese mice, OGTT and ITT were performed on the fourth day of treatment in separate cohorts. On the fifth day of treatment, 2DG clearance studies were performed. In sham/vagotomy mice, OGTT and ITT were performed on the fourth and fifth day of treatment, respectively. After a 2-week washout period without treatment injection, a basal bleed and bleed 15 minutes after an oral glucose gavage ([…]) to determine oral glucose stimulated insulin secretion were performed.
Oral glucose (2.5 g/kg; 0.1 mL/10 g body weight; Chem-Impex Int'l Inc., Wood Dale, Ill.) was given to 4 hour fasted individually housed mice. All glucose tolerance tests began at […] and glucose was measured in whole blood, collected from the tail vein, by glucometer (Manufacture #D2ASCCONKIT, Bayer, Leverkusen, Germany) at 0, 15, 30, 60, 90, and 120 minutes after glucose gavage. Blood for serum insulin (oral glucose stimulated insulin secretion; OGSIS) and glucose determination was collected from the tail vein 15 minutes following glucose administration.
Intraperitoneal insulin (0.5 U/kg; 0.1 mL/10 g body weight; Sigma Aldrich, St. Louis, Mo.) was given to 4 hour fasted individually housed mice. All insulin tolerance tests began at […] and glucose was measured in whole blood, collected from the tail vein, by glucometer (Manufacture #D2ASCCONKIT, Bayer, Leverkusen, Germany) at 0, 30, 60, 90, and 120 minutes after insulin injection.

Which “2DG clearance by gonadal white adipose tissue” value [1] does the source give for `NCCOS(=O)(=O)O` [EOS, ethanolamine-O-sulfate] here?
Its value is “did not affect”.

And the “2DG clearance by the quadriceps femoris” value [1]?
The value was “did not affect”.

What about the “increase of 2DG uptake by the soleus” value [1] of the same compound?
Its value is 22%.

What about the “responses to EOS in vagotomized mice” value ([2]; hepatic vagotomized obese mice) of the same compound?
Its value is “eliminated most of the responses”.

And the serum glucose ([2]; hepatic vagotomized obese mice)?
The serum glucose was “decrease”.

And the “glucose stimulated serum insulin” value ([2]; sham operated obese mice)?
The value was “diminished”.

What about the “glucose:insulin ratio” value ([2]; sham operated obese mice) of the same compound?
Its value is “elevated”.

What about the “insulin sensitivity by insulin tolerance test” value ([2]; sham operated obese mice) of the same compound?
The value was “tended to improve”.

What about the oral glucose tolerance ([2]; sham operated obese mice) of the same compound?
Its oral glucose tolerance is “improved”.

What about the serum glucose ([2]; sham operated obese mice) of the same compound?
Its serum glucose is “decreased”.

What about the serum insulin ([2]; sham operated obese mice) of the same compound?
Its serum insulin is “decreased”.

What about the “all parameters after washout” value ([2]; sham operated obese mice, 2-week washout) of the same compound?
Its value is “restored all parameters to pre-treatment measures”.

And the “body weight between surgical groups” value ([2]; sham vs vagotomized, during EOS treatment)?
The value was “did not differ”.
